Test results reported in patent publication US20190309272A1, “Genetically Modified Cell Lines Including a TP53 Modification and Methods of Use” (UNIVERSITY OF SOUTH CAROLINA, priority 2018, published 2019).
Where a name gives a salt, the structure may show the parent alone. Read-outs that look alike come from different tables or passages of the source. Starred links: 1 amine or outer side, 2 acyl side, 3 side chain; linkers in the order of their positions; H or OH if unused. Positions of bridges follow the written chain, without caps; N, C: chain ends. Non-standard residues stand in square brackets, D forms with d. Residues, ends and D or L forms follow the SMILES beside them. Chains are numbered I, II in the order given. Actinocin(9to1) = Cc1c2oc3c(C)ccc(C(=O)[*:1])c3nc-2c(C(=O)[*:2])c(N)c1=O; NMeV = CN[C@H](C(=O)O)C(C)C; Sar = CNCC(=O)O

How the values were obtained:
Format in all cases: cell-based, Human
MCF7 WT Parental pool = experiment: Drug screening, resazurin, MCF7 wild type parental pool
MCF7 TP53 KO 5.6 pool = experiment: Drug screening, resazurin, TP53 KO 5.6 pool
MCF7 TP53 KO 3.4 pool = experiment: Drug screening, resazurin, TP53 KO 3.4 pool
[1] = ten-day drug treatment, 156.25 nM to 10 μM, resazurin fluorescence

Row | SMILES | MCF7 WT Parental pool (AUC) (MCF7 WT Parental pool; [1]) | TP53 KO 5.6 pool (AUC) (MCF7 TP53 KO 5.6 pool; [1]) | TP53 KO 3.4 pool (AUC) (MCF7 TP53 KO 3.4 pool; [1]) | MCF7 WT Parental pool (AUC) (MCF7 WT Parental pool) | TP53 KO 5.6 pool (AUC) (MCF7 TP53 KO 5.6 pool) | TP53 KO 3.4 pool (AUC) (MCF7 TP53 KO 3.4 pool)
1 | Nc1nc(Cl)nc2c1ncn2[C@H]1C[C@H](O)[C@@H](CO)O1 [Cladribine] | 5.569 | 3.956 | 3.767 | – | – | –
2 | Nc1nc(Cl)nc2c1ncn2[C@@H]1O[C@H](CO)[C@@H](O)[C@@H]1F [Clofarabine] | 5.232 | 3.74 | 3.085 | – | – | –
3 | CC1=C2C[C@H]3[C@@H](CC=C4C[C@@H](O)CC[C@@]43C)[C@@H]2CC[C@]12O[C@@H]1C[C@H](C)CN[C@H]1[C@H]2C [Clyclopamine] | 9.488 | 9.093 | 9.033 | – | – | –
4 | O=C(c1ccc(F)c(F)c1Nc1ccc(I)cc1F)N1CC(O)([C@@H]2CCCCN2)C1 [Cobimetinib] | 7.621 | 8.041 | 4.851 | – | – | –
5 | C[C@@H](Oc1cc(-c2cnn(C3CCNCC3)c2)cnc1N)c1c(Cl)ccc(F)c1Cl [Crizotinib] | 2.549 | 2.941 | 2.325 | – | – | –
6 | O=P1(N(CCCl)CCCl)NCCCO1 (stereo not drawn) [Cyclophosphamide] | – | – | – | 16.16 | 16.92 | 15.2
7 | Cc1c2oc3c(C)ccc(C(=O)N[C@@H]4C(=O)N[C@H](C(C)C)C(=O)N5CCC[C@H]5C(=O)N(C)CC(=O)N(C)[C@@H](C(C)C)C(=O)O[C@@H]4C)c3nc-2c(C(=O)N[C@@H]2C(=O)N[C@H](C(C)C)C(=O)N3CCC[C@H]3C(=O)N(C)CC(=O)N(C)[C@@H](C(C)C)C(=O)O[C@@H]2C)c(N)c1=O [Dactinomycin] (I: T[dV]P[Sar][NMeV] / II: T[dV]P[Sar][NMeV]; ester I:1-I:C, II:1-II:C; linker I:N-II:N via Actinocin(9to1)) | 2.01 | 1.65 | 1.588 | – | – | –
8 | Cc1nc(Nc2ncc(C(=O)Nc3c(C)cccc3Cl)s2)cc(N2CCN(CCO)CC2)n1 [Dasatinib] | 4.282 | 4.43 | 4.014 | – | – | –
9 | C[C@@H](CN1CC(=O)NC(=O)C1)N1CC(=O)NC(=O)C1 [Dexrazoxane] | 8.317 | 8.868 | 8.753 | – | – | –
10 | CC(=O)O[C@@]12CO[C@@H]1C[C@H](O)[C@@]1(C)C(=O)[C@H](O)C3=C(C)[C@@H](OC(=O)[C@H](O)[C@@H](NC(=O)OC(C)(C)C)c4ccccc4)C[C@@](O)([C@@H](OC(=O)c4ccccc4)[C@H]21)C3(C)C [Docetaxel] | 1.432 | 1.663 | 1.639 | – | – | –
11 | COc1cccc2c1C(=O)c1c(O)c3c(c(O)c1C2=O)C[C@@](O)(C(=O)CO)C[C@@H]3O[C@H]1C[C@H](N)[C@H](O)[C@H](C)O1 [Doxorubicin Hydrochloride] | 0.9435 | – | – | – | 1.009 | 0.9013
12 | CNC(=O)c1ccc(N2C(=S)N(c3ccc(C#N)c(C(F)(F)F)c3)C(=O)C2(C)C)cc1F [Enzalutamide] | 8.931 | 8.634 | 8.864 | – | – | –
13 | COc1cccc2c1C(=O)c1c(O)c3c(c(O)c1C2=O)C[C@@](O)(C(=O)CO)C[C@@H]3O[C@H]1C[C@H](N)[C@@H](O)[C@H](C)O1 [Epirubicin Hydrochloride] | 0.8944 | – | – | – | 1.019 | 0.9399
14 | Cc1c(C(=O)Nc2ccc(N3C[C@@H](C)O[C@@H](C)C3)nc2)cccc1-c1ccc(OC(F)(F)F)cc1 [Erismodgib] | 7.435 | 7.491 | 6.922 | – | – | –
15 | C[C@]12CC[C@@H]3c4ccc(OC(=O)N(CCCl)CCCl)cc4CC[C@H]3[C@@H]1CC[C@@H]2OP(=O)(O)O [Estramustine Phosphate Sodium] | 9.864 | 9.348 | 9.491 | – | – | –
16 | COc1cc([C@@H]2c3cc4c(cc3[C@@H](O[C@@H]3O[C@@H]5CO[C@@H](C)O[C@H]5[C@H](O)[C@H]3O)[C@H]3COC(=O)[C@H]23)OCO4)cc(OC)c1O [Etoposide] | 2.93 | 3.06 | 2.818 | – | – | –
17 | CO[C@H]1C[C@@H]2CC[C@@H](C)[C@@](O)(O2)C(=O)C(=O)N2CCCC[C@H]2C(=O)O[C@H]([C@H](C)C[C@@H]2CC[C@@H](OCCO)[C@H](OC)C2)CC(=O)[C@H](C)/C=C(\C)[C@@H](O)[C@@H](OC)C(=O)[C@H](C)C[C@H](C)/C=C/C=C/C=C/1C [Everolimus] | 4.699 | 3.834 | 2.251 | – | – | –
18 | O=c1[nH]c(=O)n([C@H]2C[C@H](O)[C@@H](CO)O2)cc1F [Floxuridine] | 2.391 | 1.997 | 1.85 | – | – | –

Row | SMILES | MCF7 WT Parental pool (AUC) (MCF7 WT Parental pool; [1]) | TP53 KO 5.6 pool (AUC) (MCF7 TP53 KO 5.6 pool; [1]) | TP53 KO 3.4 pool (AUC) (MCF7 TP53 KO 3.4 pool; [1]) | MCF7 WT Parental pool (AUC) (MCF7 WT Parental pool) | TP53 KO 5.6 pool (AUC) (MCF7 TP53 KO 5.6 pool) | TP53 KO 3.4 pool (AUC) (MCF7 TP53 KO 3.4 pool)
19 | Nc1nc(F)nc2c1ncn2[C@@H]1O[C@H](COP(=O)(O)O)[C@@H](O)[C@@H]1O [FludarabinePhosphate] | 8.551 | 7.936 | 8.135 | – | – | –
20 | C[C@]12CC[C@@H]3c4ccc(O)cc4C[C@@H](CCCCCCCCC[S+]([O-])CCCC(F)(F)C(F)(F)F)[C@H]3[C@@H]1CC[C@@H]2O (stereo partly drawn) [Fulvestrant] | 4.6 | 4.145 | 3.797 | – | – | –
21 | COc1cc2ncnc(Nc3ccc(F)c(Cl)c3)c2cc1OCCCN1CCOCC1 [Gefintinib] | 8.974 | 8.242 | 7.676 | – | – | –
22 | Nc1ccn([C@@H]2O[C@H](CO)[C@@H](O)C2(F)F)c(=O)n1 [Gemcitabine Hydrochloride] | 2.888 | 1.827 | 1.464 | – | – | –
23 | NC(=O)NO [Hydroxyurea] | 9.246 | 8.455 | 8.069 | – | – | –
24 | C=CC(=O)N1CCC[C@@H](n2nc(-c3ccc(Oc4ccccc4)cc3)c3c(N)ncnc32)C1 [Ibrutinib] | 6.35 | 5.711 | 5.166 | – | – | –
25 | CC[C@H](Nc1ncnc2[nH]cnc12)c1nc2cccc(F)c2c(=O)n1-c1ccccc1 [Idelalisib] | 7.566 | 7.03 | 7.039 | – | – | –
26 | CC(C)Cn1cnc2c(N)nc3ccccc3c21 [Imiquimod] | 9.496 | 9.449 | 9.359 | – | – | –
27 | C/C(=C\c1csc(C)n1)[C@@H]1C[C@@H]2O[C@]2(C)CCC[C@H](C)[C@H](O)[C@@H](C)C(=O)C(C)(C)[C@@H](O)CC(=O)N1 [Ixabepilone] | 1.397 | 1.473 | 1.543 | – | – | –
28 | CC(C)C[C@H](NC(=O)CNC(=O)c1cc(Cl)ccc1Cl)B(O)O [Ixazomib] | 0.719 | 0.8766 | 0.7086 | – | – | –
29 | CS(=O)(=O)CCNCc1ccc(-c2ccc3ncnc(Nc4ccc(OCc5cccc(F)c5)c(Cl)c4)c3c2)o1 [Laptinib] | 5.364 | 5.857 | 5.619 | – | – | –
30 | Nc1cccc2c1CN(C1CCC(=O)NC1=O)C2=O (stereo not drawn) [Lenalidomide] | 8.724 | 8.801 | 8.782 | – | – | –
31 | O=NN(CCCl)C(=O)NC1CCCCC1 [Lomustine] | 9.62 | 9.491 | 9.629 | – | – | –
32 | CC(=O)O[C@]1(C(C)=O)CC[C@H]2[C@@H]3C=C(C)C4=CC(=O)CC[C@]4(C)[C@H]3CC[C@@]21C [Megestrol Acetate] | 9.824 | 9.555 | 9.221 | – | – | –
33 | N[C@@H](Cc1ccc(N(CCCl)CCCl)cc1)C(=O)O [Melphalan Hydrochloride] | 5.766 | 5.95 | 6.158 | – | – | –
34 | S=c1nc[nH]c2nc[nH]c12 [Mercaptopurine] | 6.103 | 5.636 | 5.941 | – | – | –
35 | COc1c2occc2cc2ccc(=O)oc12 [Methoxsalen] | 8.476 | 10.48 | 10.56 | – | – | –
